PubChem BioAssay AID2060887 (Molecular Pharmacology Branch, DTP, NCI, 2025)

System: 782815-120-R-J1-PDC complex spheroid viability
Test: Anticancer human tumor 782815-120-R-J1-PDC patient-derived colon adenocarcinoma cell line growth inhibition [RAS]
Conditions: for IC50: curve of first compound; for viability, T/C: stronger effect = lower value; active means viability on the fitted dose curve at most 10% of control; inactive means the rest
Summary of the method: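 Multi-cell-type spheroids: tumor cells plus HUVEC endothelial cells and mesenchymal stem cells. RAS-pathway inhibitors were combined with targeted agents, each dosed in half-log steps down from clinical Cmax, or from 10 microM when Cmax was unknown.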

[1] = second compound 0.000949 µM, first compound 0.00316 µM
[2] = second compound 0.000949 µM, first compound 0.01 µM
[3] = second compound 0.000949 µM, first compound 0.0316 µM
[4] = second compound 0.000949 µM, first compound 0.1 µM
[5] = second compound 0.000949 µM, first compound 0.316 µM
[6] = second compound 0.000949 µM, first compound 1 µM
[7] = second compound 0.003 µM, first compound 0.00316 µM
[8] = second compound 0.003 µM, first compound 0.01 µM
[9] = second compound 0.003 µM, first compound 0.0316 µM
[10] = second compound 0.003 µM, first compound 0.1 µM
[11] = second compound 0.003 µM, first compound 0.316 µM
[12] = second compound 0.003 µM, first compound 1 µM
[13] = second compound 0.00949 µM, first compound 0.00316 µM
[14] = second compound 0.00949 µM, first compound 0.01 µM
[15] = second compound 0.00949 µM, first compound 0.0316 µM
[16] = second compound 0.00949 µM, first compound 0.1 µM
[17] = second compound 0.00949 µM, first compound 0.316 µM
[18] = second compound 0.00949 µM, first compound 1 µM
[19] = second compound 0.03 µM, first compound 0.00316 µM
[20] = second compound 0.03 µM, first compound 0.01 µM
[21] = second compound 0.03 µM, first compound 0.0316 µM
[22] = second compound 0.03 µM, first compound 0.1 µM
[23] = second compound 0.03 µM, first compound 0.316 µM
[24] = second compound 0.03 µM, first compound 1 µM
[25] = second compound 0.0949 µM, first compound 0.00316 µM
[26] = second compound 0.0949 µM, first compound 0.01 µM
[27] = second compound 0.0949 µM, first compound 0.0316 µM
[28] = second compound 0.0949 µM, first compound 0.1 µM
[29] = second compound 0.0949 µM, first compound 0.316 µM
[30] = second compound 0.0949 µM, first compound 1 µM
[31] = second compound 0.3 µM, first compound 0.00316 µM
[32] = second compound 0.3 µM, first compound 0.01 µM
[33] = second compound 0.3 µM, first compound 0.0316 µM
[34] = second compound 0.3 µM, first compound 0.1 µM
[35] = second compound 0.3 µM, first compound 0.316 µM
[36] = second compound 0.3 µM, first compound 1 µM
[37] = second compound 0.000949 µM, first compound 3.16 µM
[38] = second compound 0.000949 µM, first compound 10 µM
[39] = second compound 0.003 µM, first compound 3.16 µM
[40] = second compound 0.003 µM, first compound 10 µM
[41] = second compound 0.00949 µM, first compound 3.16 µM
[42] = second compound 0.00949 µM, first compound 10 µM
[43] = second compound 0.03 µM, first compound 3.16 µM
[44] = second compound 0.03 µM, first compound 10 µM
[45] = second compound 0.0949 µM, first compound 3.16 µM
[46] = second compound 0.0949 µM, first compound 10 µM
[47] = second compound 0.3 µM, first compound 3.16 µM
[48] = second compound 0.3 µM, first compound 10 µM
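Further: spheroids exposed to compounds for 7 days before reading.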
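Wherever viability, T/C is given: 100% = DMSO vehicle control viability.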

C=CC(=O)Nc1cc(Nc2nccc(-c3cn(C)c4ccccc34)n2)c(OC)cc1N(C)CCN(C)C + CCn1c(-c2cc(N3CCN(C)CC3)cnc2C(C)OC)c2c3cc(ccc31)-c1csc(n1)CC(NC(=O)C1CC1C)C(=O)N1CCCC(N1)C(=O)OCC(C)(C)C2
< 0.00316 µM: IC50 (second compound 0.00949 µM) | IC50 (second compound 0.03 µM) | IC50 (second compound 0.0949 µM) | IC50 (second compound 0.3 µM)
inactive: viability, T/C [1] 71.5% | viability, T/C [2] 71.2% | viability, T/C [3] 79% | viability, T/C [4] 74% | viability, T/C [5] 76.4% | viability, T/C [6] 68.6% | viability, T/C [7] 59.3% | viability, T/C [8] 60.3% | viability, T/C [9] 55.6% | viability, T/C [10] 55.7% | viability, T/C [11] 54.7% | viability, T/C [12] 47.9% | viability, T/C [13] 31.2% | viability, T/C [14] 35.6% | viability, T/C [15] 34.2% | viability, T/C [16] 29.6% | viability, T/C [17] 28.3% | viability, T/C [18] 27.8% | viability, T/C [19] 17.8% | viability, T/C [20] 23.9% | viability, T/C [21] 18.6% | viability, T/C [22] 17.5% | viability, T/C [23] 19.7% | viability, T/C [24] 18.2% | viability, T/C [25] 16.1% | viability, T/C [26] 16.6% | viability, T/C [27] 14.8% | viability, T/C [28] 16.2% | viability, T/C [29] 15.1% | viability, T/C [30] 19.5% | viability, T/C [31] 17.5% | viability, T/C [32] 16.6% | viability, T/C [33] 16.8% | viability, T/C [34] 12.5% | viability, T/C [35] 16.3% | viability, T/C [36] 18.8%
> 1 µM: IC50 (second compound 0.000949 µM) | IC50 (second compound 0.003 µM)

CC(C)NCC(C(=O)N1CCN(c2ncnc3c2C(C)CC3O)CC1)c1ccc(Cl)cc1 (stereo not drawn) + CCn1c(-c2cc(N3CCN(C)CC3)cnc2C(C)OC)c2c3cc(ccc31)-c1csc(n1)CC(NC(=O)C1CC1C)C(=O)N1CCCC(N1)C(=O)OCC(C)(C)C2
> 10 µM: IC50 (second compound 0.000949 µM) | IC50 (second compound 0.003 µM)
inactive: viability, T/C [3] 79.6% | viability, T/C [4] 77.7% | viability, T/C [5] 74.5% | viability, T/C [6] 71.6% | viability, T/C [37] 77.4% | viability, T/C [38] 87.9% | viability, T/C [9] 57.2% | viability, T/C [10] 54.8% | viability, T/C [11] 61.9% | viability, T/C [12] 50.3% | viability, T/C [39] 57.2% | viability, T/C [40] 51.3% | viability, T/C [15] 34.2% | viability, T/C [16] 33.1% | viability, T/C [17] 35.3% | viability, T/C [18] 30.1% | viability, T/C [41] 30% | viability, T/C [42] 26.4% | viability, T/C [21] 20.2% | viability, T/C [22] 19.9% | viability, T/C [23] 19.1% | viability, T/C [24] 17.2% | viability, T/C [43] 16.5% | viability, T/C [44] 16.1% | viability, T/C [27] 17.2% | viability, T/C [28] 17.7% | viability, T/C [29] 18.8% | viability, T/C [30] 15% | viability, T/C [45] 16.1% | viability, T/C [46] 11% | viability, T/C [33] 18.3% | viability, T/C [34] 17.4% | viability, T/C [35] 15.3% | viability, T/C [36] 14.8% | viability, T/C [47] 14.3% | viability, T/C [48] 8.75%
< 0.0316 µM: IC50 (second compound 0.00949 µM) | IC50 (second compound 0.03 µM) | IC50 (second compound 0.0949 µM) | IC50 (second compound 0.3 µM)

CC(Nc1ccc2c(c1)OCCn1cc(N3C(=O)OCC3C(F)F)nc1-2)C(N)=O (stereo not drawn) + CCn1c(-c2cc(N3CCN(C)CC3)cnc2C(C)OC)c2c3cc(ccc31)-c1csc(n1)CC(NC(=O)C1CC1C)C(=O)N1CCCC(N1)C(=O)OCC(C)(C)C2
> 10 µM: IC50 (second compound 0.000949 µM)
inactive: viability, T/C [3] 75.1% | viability, T/C [4] 73.5% | viability, T/C [5] 76% | viability, T/C [6] 62.9% | viability, T/C [37] 73.8% | viability, T/C [38] 78.5% | viability, T/C [9] 53.1% | viability, T/C [10] 54.9% | viability, T/C [11] 46.4% | viability, T/C [12] 47.5% | viability, T/C [39] 45.1% | viability, T/C [40] 51.8% | viability, T/C [15] 29.8% | viability, T/C [16] 31.2% | viability, T/C [17] 27.9% | viability, T/C [18] 24.9% | viability, T/C [41] 24.1% | viability, T/C [42] 25.3% | viability, T/C [21] 19.8% | viability, T/C [22] 18.4% | viability, T/C [23] 15% | viability, T/C [24] 15.6% | viability, T/C [43] 16.2% | viability, T/C [44] 13.1% | viability, T/C [27] 15.4% | viability, T/C [28] 15.1% | viability, T/C [29] 11.4% | viability, T/C [30] 11.5% | viability, T/C [45] 13.5% | viability, T/C [46] 11.9% | viability, T/C [33] 15.6% | viability, T/C [34] 13% | viability, T/C [35] 10.1% | viability, T/C [36] 11.8% | viability, T/C [47] 11.9% | viability, T/C [48] 11.8%
< 0.0316 µM: IC50 (second compound 0.00949 µM) | IC50 (second compound 0.03 µM) | IC50 (second compound 0.0949 µM) | IC50 (second compound 0.3 µM)
0.195 µM: IC50 (second compound 0.003 µM)

O=C(c1ccc(F)c(F)c1Nc1ccc(I)cc1F)N1CC(O)([C@@H]2CCCCN2)C1 + CCn1c(-c2cc(N3CCN(C)CC3)cnc2C(C)OC)c2c3cc(ccc31)-c1csc(n1)CC(NC(=O)C1CC1C)C(=O)N1CCCC(N1)C(=O)OCC(C)(C)C2
< 0.00316 µM: IC50 (second compound 0.00949 µM) | IC50 (second compound 0.03 µM) | IC50 (second compound 0.0949 µM) | IC50 (second compound 0.3 µM)
0.00551 µM: IC50 (second compound 0.003 µM)
0.0241 µM: IC50 (second compound 0.000949 µM)
inactive: viability, T/C [1] 75.1% | viability, T/C [2] 64.1% | viability, T/C [3] 46.5% | viability, T/C [4] 23.2% | viability, T/C [5] 13% | viability, T/C [7] 59.4% | viability, T/C [8] 37.5% | viability, T/C [9] 32.3% | viability, T/C [10] 17.9% | viability, T/C [13] 28.2% | viability, T/C [14] 24.9% | viability, T/C [15] 13.7% | viability, T/C [19] 12.3%
active: viability, T/C [6] 1.01% | viability, T/C [11] 6.64% | viability, T/C [12] 0.53% | viability, T/C [16] 8.14% | viability, T/C [17] 1.43% | viability, T/C [18] 0.48% | viability, T/C [20] 9.75% | viability, T/C [21] 3.83% | viability, T/C [22] 1.67% | viability, T/C [23] 0.8% | viability, T/C [24] 0.47% | viability, T/C [25] 5.71% | viability, T/C [26] 2.85% | viability, T/C [27] 2.06% | viability, T/C [28] 1.08% | viability, T/C [29] 0.77% | viability, T/C [30] 0.49% | viability, T/C [31] 6.59% | viability, T/C [32] 1.81% | viability, T/C [33] 1.42% | viability, T/C [34] 0.75% | viability, T/C [35] 0.63% | viability, T/C [36] 0.61%
